Where no end group is shown, it is not given here.
Key:
Assay type in all cases: in vivo
normal conscious sheep [1] = test: Haemodynamic and haematocrit responses to stepped OSTN infusion; details: for Fall in mean arterial pressure (MAP) compared with time-matched vehicle control: sheep n = 8
Protocol: (§1) Eight Coopworth ewes (4–6 years; 42–60 kg; Lincoln University Farm, New Zealand) were instrumented under general anaesthesia (induced by 0.5 mg/kg diazepam I.V. and 4 mg/kg ketamine I.V. and maintained with a mixture of isoflurane and oxygen) and using approved peri‐ and postoperative antibiotics (20 mg/kg cephazolin I.V.; 6.6–20 mg/kg oxytetracycline I.V.) and analgesia (4 mg/kg carprofen I.V.). Sheep were instrumented via a 50‐mm‐long neck incision, allowing cannulation of the left carotid artery (16 gauge Angiocath; Becton Dickinson, Sandy, UT, USA) for direct measurement of mean arterial pressure (MAP) and heart rate (HR). A polyethylene catheter was placed in the left jugular vein for blood sampling and recording of central venous pressure (CVP). A Swan–Ganz thermodilution catheter (Edwards Life Sciences, Irvine, CA, USA) was placed in the pulmonary artery via the jugular vein for the measurement of cardiac output (CO). The urinary bladder was catheterized per urethra for timed urine collections (Charles, Espiner, Nicholls et al., [1996]). Animals recovered for ≥5 days before commencing the study protocol.
(§2) Sheep received I.V. infusions of increasing doses of ovine proOSTN (83–133), the putative 51 aa circulating peptide (at 2.5, 25 and 250 pmol/kg/min for 1 h each; Mimotopes, Melbourne, Victoria, Australia) and a vehicle control (0.9% saline) administered on separate days, ≥1 day apart, in a balanced random order.
Haemodynamic measurements [HR, MAP, CVP and CO, and calculated total peripheral resistance (CTPR = MAP/CO)] were recorded at 30 min intervals in the hour preceding the first dose (baseline) and at 15, 30, 45 and 60 min during each infusion. […] Measurements were determined by online computer‐assisted analysis (PowerLab Systems; ADInstruments, Dunedin, New Zealand) and made with the animals standing quietly in their metabolic crates (Charles, Espiner, Nicholls et al., [1996]).
Venous blood samples were obtained at 30 min and immediately preceding commencement of the first infusion (baseline) and at 30 min intervals for the duration of the study day. Samples were taken into tubes on ice, centrifuged at 4°C and stored at −20°C before assaying. Following extraction over C18 SepPac cartridges (Waters Corp., Milford, MA, USA), plasma concentrations of cGMP (Charles et al., [1990]), ANP (Charles et al., [1990]), BNP (Pemberton et al., [1997]), CNP (Charles et al., [1995]) and N‐terminal proCNP (NTproCNP) (Wilson et al., [2015]), were measured by radioimmunoassay (RIA) as previously described. Non‐extracted plasma renin activity (PRA) (Dunn & Espiner, [1976]) and aldosterone (Lun et al., [1983]) were measured as previously described. Cyclic AMP was measured by enzyme‐linked immunosorbent assay (catalogue no. ADI‐900‐163; Enzo Life Sciences, Farmingdale, NY, USA). For each analyte, all samples from individual animals were measured in the same assay to avoid interassay variability. Haematocrit concentrations were measured with every blood sample taken.

normal conscious sheep [2] = test: Renal responses (hourly urine collections, nephrogenous cGMP/cAMP) to stepped OSTN infusion; details: for Urine cAMP / Urine creatinine / Urine potassium: hourly urine collection, sheep n = 8, mean ± SD
Protocol: as §1, §2
(§3) Blood samples for analysis of plasma sodium, potassium and creatinine concentrations were taken immediately before the first dose (baseline), then hourly throughout the study. Urine volume and samples for the measurement of urine cGMP, urine cAMP, sodium, potassium and creatinine excretion were collected hourly throughout the study protocol. To estimate the contribution of renal tissues to urine cGMP/cAMP excretion, nephrogenous cGMP/cAMP was calculated using the formula [urine cG(A)MP − (glomerular filtration rate × plasma cG(A)MP/urine volume × min] (Hirata et al., [1990]).

normal conscious sheep [3] = test: Plasma sodium, potassium and creatinine during stepped OSTN infusion; details: sheep n = 8, mean ± SD
Protocol: as §2, §3

[4] = 4 h, 1 h after end of infusions
[5] = 5 h, 2 h after end of infusions
[6] = 1 h, end of OSTN 2.5 pmol/kg/min I.V.
[7] = 2 h, end of OSTN 25 pmol/kg/min I.V.
[8] = 3 h, end of OSTN 250 pmol/kg/min I.V.

With “SFSGFGSPLDRLSAGSVSHKGKQRKVVDHPKRRFGIPMDRIGRNRLSNSRG [OSTN]” the “Fall in mean arterial pressure (MAP) compared with time-matched vehicle control” value (normal conscious sheep [1]; end of 2.5 pmol/kg/min infusion period) was ~2 mmHg, the “Fall in mean arterial pressure (MAP) compared with time-matched vehicle control” value (normal conscious sheep [1]; end of 25 pmol/kg/min infusion period) was ~7 mmHg and the “Fall in mean arterial pressure (MAP) compared with time-matched vehicle control” value (normal conscious sheep [1]; end of 250 pmol/kg/min infusion period) was ~12 mmHg. For the same sequence, the “Heart rate (HR)” value (normal conscious sheep [1]; stepped OSTN infusions vs vehicle, P = 0.140) was “did not significantly alter”, the “Calculated total peripheral resistance (CTPR)” value (normal conscious sheep [1]; stepped OSTN infusions vs vehicle, P = 0.356) was “did not significantly alter” and the Haematocrit (normal conscious sheep [1]; stepped OSTN infusions vs vehicle, P = 0.360) was “did not significantly alter”. The “Cardiac output (CO)” value (normal conscious sheep [1]; stepped OSTN infusions vs vehicle, P = 0.546) was “did not significantly alter”, the “Central venous pressure (CVP)” value (normal conscious sheep [1]; vs vehicle, P = 0.003, significant reductions at 25 and 250 pmol/kg/min) was “reduced” and the “Urine cAMP” value (normal conscious sheep [2]; 1 h, OSTN 2.5 pmol/kg/min I.V.) was 674 ± 367 pmol/h. The Urine creatinine (normal conscious sheep [2]; 1 h, OSTN 2.5 pmol/kg/min I.V.) was 0.635 ± 0.100 mmol/h, the Urine potassium (normal conscious sheep [2]; 1 h, OSTN 2.5 pmol/kg/min I.V.) was 15.6 ± 3.5 mmol/h and the “Urine cAMP” value (normal conscious sheep [2]; 2 h, OSTN 25 pmol/kg/min I.V.) was 699 ± 322 pmol/h. The Urine creatinine (normal conscious sheep [2]; 2 h, OSTN 25 pmol/kg/min I.V.) was 0.593 ± 0.100 mmol/h, the Urine potassium (normal conscious sheep [2]; 2 h, OSTN 25 pmol/kg/min I.V.) was 12.7 ± 4.9 mmol/h and the “Urine cAMP” value (normal conscious sheep [2]; 3 h, OSTN 250 pmol/kg/min I.V.) was 549 ± 211 pmol/h. The Urine creatinine (normal conscious sheep [2]; 3 h, OSTN 250 pmol/kg/min I.V.) was 0.586 ± 0.200 mmol/h, the Urine potassium (normal conscious sheep [2]; 3 h, OSTN 250 pmol/kg/min I.V.) was 9.9 ± 3.6 mmol/h and the “Urine cAMP” value (normal conscious sheep [2]; [4]) was 452 ± 219 pmol/h. For the same sequence, the Urine creatinine (normal conscious sheep [2]; [4]) was 0.533 ± 0.200 mmol/h, the Urine potassium (normal conscious sheep [2]; [4]) was 7.9 ± 3.4 mmol/h and the “Urine cAMP” value (normal conscious sheep [2]; [5]) was 891 ± 1136 pmol/h. For the same sequence, the Urine creatinine (normal conscious sheep [2]; [5]) was 0.542 ± 0.100 mmol/h, the Urine potassium (normal conscious sheep [2]; [5]) was 7.4 ± 3.6 mmol/h and the “Urine sodium excretion (natriuresis)” value (normal conscious sheep [2]; stepped OSTN infusions vs vehicle, P = 0.226) was “did not increase”. The “Urinary rate (diuresis)” value (normal conscious sheep [2]; stepped OSTN infusions vs vehicle, P = 0.467) was “did not increase”, the “Urinary cGMP excretion” value (normal conscious sheep [2]; stepped OSTN infusions vs vehicle, dose-dependent, P = 0.002) was “increased” and the Plasma creatinine (normal conscious sheep [3]; [6]) was 76.6 ± 7.5 µmol/L. It also gave a Plasma potassium (normal conscious sheep [3]; [6]) of 3.8 ± 0.3 mmol/L, a Plasma sodium (normal conscious sheep [3]; [6]) of 147.0 ± 2.6 mmol/L and a Plasma creatinine (normal conscious sheep [3]; [7]) of 75.6 ± 6.9 µmol/L. The Plasma potassium (normal conscious sheep [3]; [7]) was 4.0 ± 0.5 mmol/L, the Plasma sodium (normal conscious sheep [3]; [7]) was 147.0 ± 2.5 mmol/L and the Plasma creatinine (normal conscious sheep [3]; [8]) was 76.4 ± 8.5 µmol/L. For the same sequence, the Plasma potassium (normal conscious sheep [3]; [8]) was 4.0 ± 0.5 mmol/L, the Plasma sodium (normal conscious sheep [3]; [8]) was 146.9 ± 2.4 mmol/L and the Plasma creatinine (normal conscious sheep [3]; [4]) was 75.6 ± 8.9 µmol/L. For the same sequence, the Plasma potassium (normal conscious sheep [3]; [4]) was 4.1 ± 0.6 mmol/L, the Plasma sodium (normal conscious sheep [3]; [4]) was 147.1 ± 2.2 mmol/L and the Plasma creatinine (normal conscious sheep [3]; [5]) was 74.6 ± 8.5 µmol/L. It also gave a Plasma potassium (normal conscious sheep [3]; [5]) of 4.3 ± 0.6 mmol/L and a Plasma sodium (normal conscious sheep [3]; [5]) of 146.5 ± 2.1 mmol/L.

Source: paper PMC11291853, “Haemodynamic, hormonal and renal actions of osteocrin in normal sheep” (Experimental Physiology, 2024)
